Patent US20200157508A1, “SYSTEMS AND METHODS FOR GROWTH OF INTESTINAL CELLS” (CEDARS-SINAI MEDICAL CENTER, priority 2017, published 2020)

How the values were obtained:
[1] = system: Caco2 cells; assay: Western blot of STAT1 phosphorylation in Caco2 Chip exposed to IFNγ; type: cell-based; conditions: 10-1000 ng/ml in lower channel for one hour
Experimental: (§1) FIG. 3. a) Western blot analysis showing phosphorylation of STAT1 in Chips containing either HIO-derived intestinal epithelial or Caco2 cells in response to exposure of increasing concentrations (0-1000 ng/ml) of IFNγ in the lower channel for 1 hour. Both GAPDH and STAT1 were used as loading controls. Image J analysis was used to quantify levels of phosphorylation of STAT1 compared to GAPDH b) Quantitative reverse transcription-polymerase chain reaction analyses of IDO1 and GBP1 and c) PLA2G2a, Muc4, lysozyme, Reg3γin Chips incorporating either HIO-derived epithelial or Caco2 cells in response to exposure of 10 ng/ml of IFNγ in the lower channel for 3 days. Three independent experiments were carried out; data represent mean and s.e.m; *P<0.05, **P<0.01 compared to respective untreated controls. […] Two independent experiments were carried out; data represent mean±SEM. **P<0.01. AUC, area under the curve; CTL, control; GAPDH, glyceraldehyde-3-phosphate dehydrogenase.
(§2) PBS was flushed through both the upper and lower channels and total protein was extracted in situ using cell lysis buffer (Cell Signaling cat #9803s) supplemented with protease and […] inhibitor (Sigma, # MSSAFE). Protein concentration was then determined and equal amounts of protein lysates were heat denatured and separated on a 10% mini-protean precast gel (Bio-Rad, #456-8034). […]

[2] = system: HIO-derived intestinal epithelial cells; assay: Western blot of STAT1 phosphorylation in Intestine-Chip exposed to IFNγ; type: cell-based, human; conditions: 10-1000 ng/ml in lower channel for one hour
Experimental: as §1, §2

[3] = system: HIO-derived epithelial cells; assay: qRT-PCR gene expression in Intestine-Chip exposed to IFNγ; type: cell-based, human
Experimental: as §1
(§3) PBS was flushed through both the upper and lower channels and total RNA from the Intestine-Chip was extracted in situ with the RNeasy mini kit (Qiagen, USA). cDNA was generated from 1 μg of RNA using the Omniscript RT Kit (Qiagen). qRT-PCR was performed using SYBR® Select Master Mix (Applied Biosystems) on a BioRad CFX384 Real-Time System. Primer sequences as follows:
(§4) As Caco2 cells are routinely used to assess intestinal epithelial responses and have previously been incorporated into Chips, the Inventors also included these in the Inventors' studies to directly compare the Intestine-Chip. […] Thus both cell types were incubated with 10 ng/ml of IFNγ for 3 days and assessed for upregulation of indoleamine 2 3-dioxygenase (IDO1) and guanylate binding protein 1 (GBP1).

[4] = system: Caco2 cells; assay: qRT-PCR gene expression in Caco2 Chip exposed to IFNγ; type: cell-based; conditions: 10 ng/ml for 3 days
Experimental: as §1, §3, §4

[5] = 10 ng/ml in lower channel for 3 days
[6] = attenuated in comparison to HIO-epithelial cells

## IFNγ: a cytokine known to be upregulated in IBD
[1]
  phosphorylation of STAT1: robust phosphorylation of STAT1
[2]
  phosphorylation of STAT1: robust phosphorylation of STAT1
[3]; 10 ng/ml for 3 days
  Muc4 expression: significant upregulation
  PLA2G2a expression: significant upregulation
  Reg3γ expression: no differences
  lysozyme expression: no differences
[3]; [5]
  GBP1 expression vs controls: significant increase
  IDO1 expression vs controls: significant increase
[4]
  expression of PLA2G2a, Muc4, lysozyme, Reg3γ: did not observe any significant upregulation
[4]; [6]
  GBP1 expression vs controls: significant upregulation
  IDO1 expression vs controls: significant upregulation
